Literature values in patent publication US20080268488A1, “Screening Method for Dnak Inhibitors” (priority 2005, published 2008).
No end group written: not given here.

Conditions: aminopeptidase and carboxypeptidase cleavage products observed

Sequence	susceptibility to proteolytic degradation in the presence of mammalian serum
GKPRPYSPRPTSHPRPIRV [drosocin, Gly-Lys-Pro-Arg-Pro-Tyr-Ser-Pro-Arg-Pro-Thr-Ser-His-Pro-Arg-Pro-Ile-Arg-Val]	highly susceptible to proteolytic degradation
VDKGSYLPRPTPPRPIYNRN [pyrrhocoricin]	highly susceptible to proteolytic degradation
